{"source": "a melting point compilation (Tetko et al.; mined from patent text by program, amines drawn as free bases though some values may be those of a salt)"}
{"units": {"melting point": "°C"}}
{"smiles": "CC(=O)c1c(-c2ccc(F)cc2)ncn1C1CC(C)(C)NC(C)(C)C1", "melting point": "134 to 136"}
{"smiles": "CC#CC1(C2CC2)OC(=O)Nc2ccc(-c3cccc(Cl)c3)cc21", "note": "(stereo not drawn)", "melting point": "178 to 179"}
{"smiles": "Cc1ccc(C2=C(c3ccc(S(C)(=O)=O)cc3)CN(C3CC3)C2=O)cc1", "melting point": "214 to 216"}
{"smiles": "CCCc1nc(C)n2nc(N)nc2c1Cc1ccc(-c2ccccc2C#N)cc1", "melting point": 150}
{"smiles": "Cc1ccc(S(=O)(=O)N(Cc2cc(C(C)(C)C)c(O)c(C(C)(C)C)c2)c2ccc(Cl)nc2)cc1", "melting point": "152 to 153"}
{"smiles": "COc1ccc(-c2cc(=O)c3cc(OCCCCCN4CCC(O)CC4)ccc3o2)cc1", "melting point": "138 to 139"}
{"smiles": "N#Cc1nc2cc(Cl)c3cccnc3c2o1", "melting point": "214 to 215"}
{"smiles": "Nc1nc(-c2cc(Cl)ccc2Cl)nc(N(CCO)CCO)n1", "melting point": "199 to 200"}
{"smiles": "Cc1cc2cc(CN3CCC(CCCC(=O)N4CCCCC4)CC3)cnc2cc1NC(=O)c1ccc(-c2ccc(F)cc2)cc1", "melting point": 179}
{"smiles": "CSc1nn(-c2c(Cl)cc(C(F)(F)F)cc2Cl)nc1C", "melting point": "38 to 40"}
{"smiles": "CCS(=O)(=O)N(C)C1CCCOc2ccccc21", "note": "(stereo not drawn)", "melting point": "122 to 124"}
{"smiles": "O=[N+]([O-])c1cn2c(n1)OC(COc1ccc(N3CCN(NCc4ccc(-c5ccc(C(F)(F)F)cc5)cc4)CC3)cc1)CC2", "note": "(stereo not drawn)", "melting point": "294 to 295"}
{"smiles": "CNC(=O)c1cn(C)c2cc(Cl)ccc2c1=O", "melting point": "260 to 263"}
{"smiles": "COP(=O)(CCC(C)(C)c1ccc(O)cc1O)OC", "melting point": "142 to 143"}
{"smiles": "COCOc1ccc(CCCOc2c(CC(=O)O)cccc2OC)c(Oc2ccc(C(F)(F)F)cn2)c1", "melting point": "70 to 72"}
{"smiles": "CN1CC(CCCCN2CCN(c3ccccc3O)CC2)OC1=O", "note": "(stereo not drawn)", "melting point": "106 to 110"}
{"smiles": "O=C(O)/C=C/c1cc(C2CC2)nn1Cc1ccc(C(F)(F)F)cc1Cl", "melting point": "191 to 192"}
{"smiles": "Cc1cc(C)c(C)c(OCC(=O)O)c1", "melting point": "129 to 130"}
{"smiles": "O=[N+]([O-])c1cc2nc(Cl)c(Cl)nc2cc1Sc1ncc[nH]1", "melting point": "> 300"}
{"smiles": "CCC(O)(c1ccccc1)c1ccccc1", "melting point": "93 to 94"}
{"smiles": "CCOC(=O)c1c[nH]c2nc(-c3ccncc3)c(F)cc2c1=O", "melting point": "280 to 285"}
{"smiles": "CC(C)(C)OC(=O)[C@H]1C[C@@H](S(=O)(=O)c2ccccc2)[C@@H](c2ccccc2)N1C(=O)CNC(=O)Nc1cccc(C(=O)OCc2ccccc2)c1", "note": "(racemic)", "melting point": 212}
{"smiles": "Cc1cc(CN(Cc2ccco2)c2sc(-c3ccc(C(F)(F)F)cc3)nc2C)ccc1OC(C)(C)C(=O)O", "melting point": 80}
{"smiles": "CCCCc1c(Cl)ncnc1Cl", "melting point": "62 to 63"}
{"smiles": "Clc1ccc(I)cc1CBr", "melting point": "94 to 95"}
{"smiles": "COC(=O)c1cscc1NC(=O)COc1ccc(Br)cn1", "melting point": "138 to 140"}
{"smiles": "CCOc1ccc(-n2c(-c3ccc(SC)cc3)nc(SC)c(C#N)c2=O)cc1", "melting point": "209 to 213"}
{"smiles": "C=CC(=O)NC(=O)CC(C)=O", "melting point": "128 to 130"}
{"smiles": "CCCCCOc1cc2c(cc1/C=C/C=C/C(C)=C/C(=O)O)C(C)(C)CCC2(C)C", "melting point": "162 to 163"}
{"smiles": "CCOC(=O)COc1ccc(SCc2ccnc3[nH]c(-c4ccc(C(F)(F)F)cc4)nc23)cc1C", "melting point": "239 to 241"}
{"smiles": "C#CCOc1ccc(C=O)cc1OC", "melting point": 95}
{"smiles": "CCOC(=O)Cn1nnnc1C(=O)c1ccccc1", "melting point": "63 to 67"}
{"smiles": "CC(C(=O)O)c1ccc2c(c1)CC(C)(C)C2", "note": "(stereo not drawn)", "melting point": "180 to 183"}
{"smiles": "Cn1cncc1C(N)(c1ccoc1)c1ccc2c(c1)c(-c1cccc(Cl)c1)cc(=O)n2C", "note": "(stereo not drawn)", "melting point": 197}
{"smiles": "CCCCNC(=O)c1cccc(-c2ccnc3c(C(=O)c4cccs4)cnn23)c1", "melting point": "172 to 174"}
{"smiles": "Cc1cscc1NC(=S)NC1CCCCC1N", "note": "(stereo not drawn)", "melting point": "205 to 210"}
{"smiles": "CN(C=O)CCC12CCCn3c1c(c1ccccc13)CCO2", "note": "(stereo not drawn)", "melting point": "111 to 113"}
{"smiles": "CCC(C)(C)c1cccc(C(=O)NN)c1O", "melting point": "156 to 157"}
{"smiles": "COc1cc(OC)cc(N2CCN(C(=O)[C@](C)(C#N)[C@H](c3ccccc3OC)c3cccc4ccccc34)CC2)c1", "melting point": "186 to 188"}
{"smiles": "Cc1cc(-c2ccc3c(C(N)=O)nn(-c4ccc(S(N)(=O)=O)cc4)c3c2)ccc1F", "melting point": "300 to 302"}
{"smiles": "CCCn1c(COCC)nc2c(N)nc3ccc(OCCCCCCNC(=O)C(C)C)cc3c21", "melting point": "136 to 138"}
{"smiles": "CC(C)(C)c1cc(-c2csc(CO)n2)cc(C(C)(C)C)c1O", "melting point": "126 to 127"}
{"smiles": "CCCNc1ccc(Cl)cc1Cl", "melting point": 121}
{"smiles": "O=C(CC1Sc2ccccc2NC1=O)NCc1ccccc1", "note": "(stereo not drawn)", "melting point": "238 to 240"}
{"smiles": "CC(C)NC(=O)c1cnn(C)c1C(=O)Nc1ccn2nc(-c3ccccc3)nc2c1", "melting point": "> 250"}
{"smiles": "Clc1ccc(Br)c2nc(SCc3ccccc3)nn12", "melting point": "122 to 124"}
{"smiles": "CCOC(=O)C1=C(C)NC(c2cncs2)=NC1c1ccc(F)cc1Cl", "note": "(stereo not drawn)", "melting point": "121 to 125"}
{"smiles": "CCC(CC)O[C@@H]1C=C(C(=O)O)C[C@H](CC=O)[C@H]1NC(C)=O", "melting point": "70 to 71"}
{"smiles": "Cc1cc(-c2nc3c(C)cc(Cl)nn3c2-c2ccnc(N)c2)ccc1F", "melting point": "218 to 219"}
{"smiles": "O=C1C(=O)c2ccccc2C2=C1SCC(CN1CCC(CO)CC1)O2", "note": "(stereo not drawn)", "melting point": "200 to 202"}
{"smiles": "CCON=C(C(=O)O)c1csc(NC(c2ccccc2)(c2ccccc2)c2ccccc2)n1", "melting point": 200}
{"smiles": "CC(C)(C)c1cc(CCc2ccccc2NC(=O)N2CCc3ccccc3C2)cc(C(C)(C)C)c1O", "melting point": "148 to 150"}
{"smiles": "CCN(C(=O)C(=O)O)c1ccc2c(C)cc(=O)oc2c1", "melting point": 142}
{"smiles": "CCOC(=O)CNS(=O)(=O)c1ccc(N2CCC(NC[C@H](O)c3ccc(O)c(NS(C)(=O)=O)c3)CC2)cc1", "melting point": "105 to 107"}
{"smiles": "CCOC(=O)N1CCN(CCS(=O)c2ccccc2)CC1", "note": "(stereo not drawn)", "melting point": 76}
{"smiles": "Cc1cccc2c1Oc1ccccc1N2", "melting point": 91}
{"smiles": "Cc1oc(-c2ccccc2)nc1COc1cccc(CCCC2OC(=O)NC2=O)c1", "note": "(stereo not drawn)", "melting point": "134 to 135"}
{"smiles": "CCOC(=O)C(CCC#N)(C(=O)OCC)c1ncc(C)cc1[N+](=O)[O-]", "melting point": "48 to 49"}
{"smiles": "COC(=O)Nc1nc(C)c(-c2nc3ccccc3c(=O)n2-c2ccc(C(C)=O)cc2)s1", "melting point": "232 to 234"}
{"smiles": "COc1cc(OC)c2c(=O)[nH]c(-c3cc(C)c(OCCO)c(C)c3)cc2n1", "melting point": 225}
{"smiles": "Cc1cc(C)cc(C(=O)N2CCN(C(=O)CBr)C(c3ccc(Cl)c(Cl)c3)C2)c1", "note": "(racemic)", "melting point": "68 to 71"}
{"smiles": "Cc1c(-c2ccccc2)nn(N)c1OCCN1CCCC1", "melting point": 109}
{"smiles": "O=S(=O)(c1ccccc1)N1CCN(C(c2ccccc2)c2ccc(Cl)cc2)CC1", "note": "(single isomer, unassigned; (-))", "melting point": "116 to 118"}
{"smiles": "COc1cc(C(=O)O)ccc1CN1CCOc2ccc(NC(=O)CC3CCCC3)cc21", "melting point": "224 to 225"}
{"smiles": "Cc1cc(C)nc(S(=O)(=O)Nc2c(Cl)cccc2Cl)n1", "melting point": "261 to 263"}
{"smiles": "Nc1cc(Cl)cc(Cl)c1C(=O)NCc1cccc(F)c1", "melting point": "79 to 81"}
{"smiles": "C[C@@H](NC(=O)OC(C)(C)C)c1nc2c(Cl)cccc2s1", "melting point": "95 to 96"}
{"smiles": "O=C1CCc2ncc3cc(Cl)c(Cl)cc3c2N1", "melting point": 350}
{"smiles": "O=C1OC[C@H](c2ccccc2)N1C(=O)C1C=C1", "melting point": "118 to 119"}
{"smiles": "CCOC(=O)c1cn2c(n1)CN=C(c1ccccn1)c1cc(Br)ccc1-2", "melting point": "227 to 230"}
{"smiles": "O=[N+]([O-])c1ccccc1-c1nc2ccccc2n1CC(O)CO", "note": "(stereo not drawn)", "melting point": "182 to 183"}
{"smiles": "Cn1cc(C2=C(c3c4n(c5ccccc35)CCC(C(N)=O)C4)C(=O)OC2=O)c2ccccc21", "note": "(stereo not drawn)", "melting point": "307 to 309"}
{"smiles": "CCCCN(C(=O)c1cc(C)oc1C)C1CC(C)(C)NC(C)(C)C1", "melting point": "78 to 79"}
{"smiles": "Nc1nnc(-c2cc3c(Oc4ccc(Cl)cc4)cncc3s2)s1", "melting point": "> 270"}
{"smiles": "COc1ccc(-c2cc3cc(F)c(F)cc3[nH]2)cc1NC(=S)NCCO", "melting point": "191 to 193"}
{"smiles": "NC(=O)Nc1ccc2c(c1)N1CCN=C1S2", "melting point": 300}
{"smiles": "O=C(O)C1=Cc2c(ccc3occ(-c4ccc(Br)cc4)c23)OC1C(F)(F)F", "note": "(stereo not drawn)", "melting point": "> 250"}
{"smiles": "COC(=O)c1ccc(-c2nc(-c3ccc(Cl)s3)co2)cc1", "melting point": "189 to 190"}
{"smiles": "O=C(Cc1ccccc1)c1ccc(OCCN2CCCC2)cc1", "melting point": "77 to 78"}
{"smiles": "O=C(O)Cc1c(Cl)nc(-c2ccccc2)n1Cc1cc([N+](=O)[O-])ccc1Cl", "melting point": "200 to 205"}
{"smiles": "COc1cc(-c2ccc3ncc(NC(=O)Nc4ccccc4)nc3n2)ccc1O", "melting point": 240}
{"smiles": "Cc1c(F)cccc1CC(=Cc1ccccc1)[N+](=O)[O-]", "melting point": "111 to 112"}
{"smiles": "CC(CCC(=O)O)(Sc1cc(C(C)(C)C)c(O)c(C(C)(C)C)c1)Sc1cc(C(C)(C)C)c(O)c(C(C)(C)C)c1", "melting point": "90 to 92"}
{"smiles": "O=C(CSc1ccncc1)Nc1cccc(-c2ccnc3c(C(=O)c4cccs4)cnn23)c1", "melting point": "138 to 144"}
{"smiles": "O=C1N(C(c2ccccc2)c2ccccc2)c2cc(F)ccc2C12COc1cc3c(cc12)CCO3", "note": "(stereo not drawn)", "melting point": "194 to 196"}
{"smiles": "COc1cc2c(cc1OC)N(C)C(=O)CN=C2c1ccc(Cl)c(Cl)c1", "melting point": "174 to 177"}
{"smiles": "COC(=O)c1ccc(Oc2c(C)n(CC(=O)O)c3ccc(Cl)cc23)cc1", "melting point": "196 to 197"}
{"smiles": "CC(C)(C)C=CC1=C(O)C(=O)c2ccccc2C1=O", "melting point": "126 to 128"}
{"smiles": "CC1NC(=NO)OC1c1ccccc1", "note": "(stereo not drawn)", "melting point": "145 to 148"}
{"smiles": "COc1ccc(C(=O)c2ccc(C)cc2)cc1C", "melting point": "73 to 75"}
{"smiles": "COC(=O)c1cc([N+](=O)[O-])c(F)cc1F", "melting point": "78 to 80"}
{"smiles": "CC(C)N1CN(C(=O)c2c(F)cccc2F)C(=O)N(c2ccc(Cl)cc2)C1", "melting point": "130 to 131"}
{"smiles": "COc1ccc(CS(=O)(=O)c2cc3cc(Cl)ccc3oc2=O)cc1", "melting point": "224 to 226"}
{"smiles": "N#Cc1c(N2CCCCC2)cc(-c2ccc(Br)cc2)c2c1Cc1ccccc1-2", "melting point": 212}
{"smiles": "O=C(c1cc(-c2ccc(OCc3ccccc3)cc2)c(=O)n2ccc3ccsc3c12)N(CCN1CCOCC1)c1ccccc1", "melting point": "168 to 170"}
{"smiles": "Cc1[nH]n(C(C)(C)C)c2nc(Cc3ccccc3)nc(=O)c1-2", "melting point": "196 to 197"}
{"smiles": "C[C@@H]([C@@H](CC1CCC(c2ccccc2)CC1)C(=O)N[C@H](C(=O)Nc1nccs1)C(C)(C)C)N(O)C=O", "note": "(stereo partly drawn)", "melting point": "213 to 214"}
{"smiles": "O=C(Cc1ccccn1)Nc1ccc(CCCc2ccccc2OCc2ccccc2)cc1", "melting point": "61 to 62"}
